The record followed here is patent US4343795A, “Biologically active amides” (priority 1977, dated 1982).

Where a name gives a salt, the structure may show the parent alone. Non-standard residues stand in square brackets, D forms with d. Residues, ends and D or L forms follow the SMILES beside them. Phe(4-NO2) = N[C@@H](Cc1ccc([N+](=O)[O-])cc1)C(=O)O

Test [1] deals with mice. As to the kind of experiment: Analgesia in mice in the hot plate test. It counts as in vivo. The note with it: i.c.v. How it is done: (A) Analgesia in mice in the hot plate test (modification of the method of Eddy, N. B. et al., J. Pharm. Exp. Therap. (1953) 107, 385, the peptide being administered by intracerebroventricular injection).
(§1) From the data obtained the respective ED50 figures were calculated (i.e. the dose required to elicit the appropriate effect in 50% of the animals). N.T.: not tested.
Background: Hot-plate and tail-flick tests time the reaction to a heat stimulus.

The test system of another test is rat. As to the kind of experiment: Antidiarrhoeal activity in the rat (castor oil). The test is classed as in vivo. The note with it: for ANTIDARRHOEA ED50 p.o. / ANTIDARRHOEA ED50 s.c.: castor oil 15 minutes after peptide. As to the method:
(B) Antidiarrhoeal activity in the rat. In this procedure rats were starved for 24 hours, the peptide then administered either subcutaneously or orally followed after 15 minutes by 1 ml. castor oil per rat given orally.
as §1

The next test relates to guinea-pigs. As to the kind of experiment: Anti-tussive testing, citric acid aerosol in guinea-pigs. The test is classed as in vivo. As to conditions: guinea-pig; for ANTITUSSIVE ED50 p.o.: 20% citric acid aerosol 30 minutes after compound. How it is done: J. Pharmacol., 39, (1970) 225.
(C) For anti-tussive testing, guinea-pigs are subjected to an aerosol containing 20% citric acid, 30 minutes after administration of compound (orally or subcutaneously). The number of coughs during a five minute exposure are counted and meaned for six animals per treatment. The method is that described by Boura, A. L. A., Green, A. F. and Saunders, I. A. Br. J. Pharmac., May 1970, Vol. 39, No. 1, page 225.
as §1

Test [2] relates to mice. As to the kind of experiment: Analgesia in mice in the writhing test. The test is classed as in vivo. The note with it: mouse, p.o.
From the text: As a further example the compounds are effective in reducing acetic acid-induced writhing in mice when tested by a modification of the method of Henderson et. al., J. Pharm. Exp. Therap. 125 (1959), 237; the compounds being administered orally and this reduction in writhing is abolished by naloxone.
(D) Analgesia in mice in the writhing test (modification of the method of Henderson et. al. (J. Pharm. Exp. Therap., 125,(1959),237) the peptide being administered orally.
as §1
For orientation: An intraperitoneal irritant provokes the stretching counted in writhing tests.

Test [3] has as its system laboratory animals including rats and mice. The experiment in a line: Induction of anaesthesia / abolition of the righting reflex in laboratory animals. As to conditions: laboratory animals such as mice, up to lethal doses.

As to `CSCC[C@@H](NC(=O)[C@@H](N)Cc1ccc(O)cc1)C(=O)NCC(=O)N[C@@H](Cc1ccc([N+](=O)[O-])cc1)C(=O)N1CCC[C@H]1C(N)=O` [Example 1, H.Tyr.D-Met.Gly.Phe(4NO2).Pro.NH2] (H-Y[dM]G[Phe(4-NO2)]P-NH2), the “ANALGESIA: MOUSE HOT PLATE ED50” value with mice [1] was 0.007 μg/mouse. In the test on rat, the “ANTIDARRHOEA ED50 p.o.” value amounted to 2 mg/kg and the “ANTIDARRHOEA ED50 s.c.” value is 0.05 mg/kg. For the same molecule, in the test on guinea-pigs, the “ANTITUSSIVE ED50 p.o.” value worked out at 0.7 mg/kg. Also, in the test with mice [2], the “ANALGESIA: WRITHING ED50” value stood at 35 mg/kg.

Consider `CSCC[C@@H](NC(=O)[C@@H](N)Cc1ccc(O)cc1)C(=O)NCC(=O)N[C@@H](Cc1ccccc1)C(=O)N1CCC[C@@H]1C(=O)O` [Example 3, H.Tyr.D-Met.Gly.Phe.D-Pro.OH HCl] (H-Y[dM]GF[dP]-OH), for which the “ANALGESIA: MOUSE HOT PLATE ED50” value with mice [1] is reported as 0.005 μg/mouse. In the test on rat, the “ANTIDARRHOEA ED50 p.o.” value came to 7 mg/kg and the “ANTIDARRHOEA ED50 s.c.” value was 2 mg/kg. Besides, the “ANTITUSSIVE (ED50 column): activity at 10 p.o.” value in the test on guinea-pigs (at 10 mg/kg p.o.) is recorded as “None”.

For `CSCC[C@@H](NC(=O)[C@@H](N)Cc1ccc(O)cc1)C(=O)NCC(=O)N[C@@H](Cc1ccc([N+](=O)[O-])cc1)C(=O)N1CCC[C@H]1C(=O)O` [Example 4, H.Tyr.D-Met.Gly.Phe(4NO2).Pro.OH HCl] (H-Y[dM]G[Phe(4-NO2)]P-OH), the “ANALGESIA: MOUSE HOT PLATE ED50” value with mice [1] is reported as 0.07 μg/mouse. For the same molecule, the “ANTIDARRHOEA p.o. (ED50 column): activity at 10” value in the test on rat (at 10 mg/kg p.o.) is “None”. Further, the “ANTIDARRHOEA ED50 s.c.” value in the test with rat amounted to 0.2 mg/kg.

As to `CN1CC[C@]23c4c5ccc(O)c4O[C@H]2[C@@H](O)C=C[C@H]3[C@H]1C5` [morphine], in test [3], the “Abolition of the righting reflex” value was “does not abolish the righting reflex”.

In the case of “H.Tyr.D-Met(O2).Gly.Phe(4NO2).Pro.NH2 [Example 7]”, the “ANALGESIA: MOUSE HOT PLATE ED50” value in the test with mice [1] was found to be 0.00008 μg/mouse. Further, in the test on rat, the “ANTIDARRHOEA ED50 p.o.” value was 0.3 mg/kg and the “ANTIDARRHOEA ED50 s.c.” value is 0.05 mg/kg. Further, the “ANTITUSSIVE ED50 p.o.” value in the test on guinea-pigs came out at 3 mg/kg.

Turning to “H.Tyr.D-Met.Gly.Phe(4Cl).Pro.NH2 [Example 9]”, the “ANALGESIA: MOUSE HOT PLATE ED50” value in the test on mice [1] is on record as 0.005 μg/mouse. In the test on rat, the “ANTIDARRHOEA ED50 p.o.” value was 10 mg/kg and the “ANTIDARRHOEA ED50 s.c.” value is recorded as 0.2 mg/kg.

As for “Tyr.D-Met.Gly.Phe(4NO2).homoPro.NH2 [Example 21]”, the “ANALGESIA: MOUSE HOT PLATE ED50” value with mice [1] worked out at 0.003 μg/mouse. In the test on rat, the “ANTIDARRHOEA ED50 p.o.” value is on record as 2 mg/kg and the “ANTIDARRHOEA ED50 s.c.” value worked out at 0.03 mg/kg.
